# Laboratory results taken from ChEMBL document CHEMBL3271985, “Partition coefficients and surface areas of some alkylbenzenes” (J Med Chem, 1976).
# Assay: Octanol-water partition coefficient, log P of the compound
row,Compound,logP
1,Cc1ccccc1C [O-XYLENE],3.12
2,CC(C)c1ccccc1 [ISOPROPYLBENZENE],3.66
3,c1ccc2c(c1)CCCC2,3.52
4,Cc1ccc(C)cc1 [P-XYLENE],3.15
5,c1ccc(C2CCCC2)cc1,4.27
6,c1ccc(C23CC4CC(CC(C4)C2)C3)cc1,5.43
7,c1ccc2c(c1)CCC2,3.33
8,CC(C)(C)c1ccccc1 [tert-Butylbenzene],4.11
9,c1ccc(C2CCCCC2)cc1,4.64
10,Cc1cccc(C)c1 [M-XYLENE],3.2
11,c1cc2ccc1CCc1ccc(cc1)CC2,2.33
